Assay results taken from US4359458A, “O-β. -D (and O-α.. -D) Multigalactopyranosyl, xylopyranosyl and glucopyranosyl sulfate salts” (American Cyanamid Company, priority 1981, dated 1982).
Where a name gives a salt, the structure may show the parent alone.

Assays:
activated human C1 = activated human C1 (Homo sapiens, UniProt P09871); test: Test Code 026 (C1 inhibitor); format: biochemical; settings: serial dilution assay, twofold dilutions; higher well number indicates higher activity
Text: (§1) An active inhibitor protects C2 from C1 and C4; (ii) Test Code 035 (C3-C9 inhibitor)--This test determines the ability of the late components of human complement (C3-C9) to lyse EAC 142 in the presence of appropriate dilutions of the test compound. An active inhibitor protects EAC 142 from lysis by human C3-C9; (iii) Test Code 036 (C-Shunt inhibitor)--In this test human erythrocytes rendered fragile are lysed in autologous serum via the shunt pathway activated by cobra venom factor in the presence of appropriate dilutions of the test compound. Inhibition of the shunt pathway results in failure of lysis; (iv) Cap 50 Test--Here, appropriate amounts of the test compound are added to a pool of guinea pig serum in vitro, after which the undiluted serum capillary tube assay of U.S. Pat. No. 3,876,376 is run. The concentration of compound inhibiting 50% is reported; and (v) Guinea Pig Intraperitoneal Test (GPIP)--Guinea pigs weighing about 300 g are dosed intraperitoneally (i.p.) with 200 mg/kg of the test compound dissolved in saline and adjusted to pH 7-8. Approximately 0.4 ml blood samples, taken by orbital sinus puncture 30 minutes and one hour after injections, are collected directly into centrifuge tubes; 5 ml blood samples, taken by decapitation 2 hours after injection are collected directly into beakers. The samples are allowed to clot, centrifuged, and the resultant sera are assayed for complement activity using the capillary complement assay. Percent inhibition is calculated by comparison with simultaneous controls. The results of the GPIP appear in Table I together with results of test code 026, 035, 036 and Cap 50.

[1] = tested on: shunt pathway activated by cobra venom factor; test: Test Code 036 (C-Shunt inhibitor); format: cell-based, human; settings: serial dilution assay, twofold dilutions; higher well number indicates higher activity; N = Negative
Text: as §1

[2] = tested on: late components of human complement (C3-C9); test: Test Code 035 (C3-C9 inhibitor); format: biochemical; settings: serial dilution assay, twofold dilutions; higher well number indicates higher activity; N = Negative
Text: as §1

SMILES | Cl 026 Wells (activated human C1) [Wells] | C-Shunt Inhibition 036 Wells [1] | C-Late 035 Wells [2]
O=S(=O)(O)OC[C@H]1O[C@@H](OC[C@H]2O[C@H](O[C@H]3O[C@H](CO[C@@H]4O[C@H](COS(=O)(=O)O)[C@H](OS(=O)(=O)O)[C@H](OS(=O)(=O)O)[C@H]4OS(=O)(=O)O)[C@@H](OS(=O)(=O)O)[C@H](OS(=O)(=O)O)[C@H]3OS(=O)(=O)O)[C@H](OS(=O)(=O)O)[C@@H](OS(=O)(=O)O)[C@@H]2OS(=O)(=O)O)[C@H](OS(=O)(=O)O)[C@@H](OS(=O)(=O)O)[C@H]1OS(=O)(=O)O [drawing 11, Gal 1β,6 glc 1α,1α' glc 1β,6 gal, tetradecakis (H-sulfate), tetradecasalt with trimethylamine] | 9 | 5 Wells | –
O=S(=O)(O)OC[C@H]1O[C@@H](OC[C@H]2O[C@H](O[C@H]3O[C@H](CO[C@@H]4O[C@H](COS(=O)(=O)O)[C@H](OS(=O)(=O)O)[C@H](OS(=O)(=O)O)[C@H]4OS(=O)(=O)O)[C@@H](OS(=O)(=O)O)[C@H](OS(=O)(=O)O)[C@H]3OS(=O)(=O)O)[C@H](OS(=O)(=O)O)[C@@H](OS(=O)(=O)O)[C@@H]2OS(=O)(=O)O)[C@H](OS(=O)(=O)O)[C@@H](OS(=O)(=O)O)[C@H]1OS(=O)(=O)O [drawing 12, Gal 1β,6 glc 1α,1α' glc 1β,6 gal, tetradecakis (H-sulfate), tetradecasodium salt] | 9 | 6 Wells | –
O=S(=O)(O)O[C@@H]1[C@@H](OS(=O)(=O)O)[C@@H](O[C@H]2O[C@H](CO[C@@H]3OC[C@@H](OS(=O)(=O)O)[C@H](OS(=O)(=O)O)[C@H]3OS(=O)(=O)O)[C@@H](OS(=O)(=O)O)[C@H](OS(=O)(=O)O)[C@H]2OS(=O)(=O)O)O[C@H](CO[C@@H]2OC[C@@H](OS(=O)(=O)O)[C@H](OS(=O)(=O)O)[C@H]2OS(=O)(=O)O)[C@H]1OS(=O)(=O)O [drawing 13, Xyl 1β,6 glc 1α,1α' glc 1β,6 xyl, dodecakis (H-sulfate), dodecasalt with trimethylamine] | 10 | 3 Wells | –
O=S(=O)(O)OC[C@H]1O[C@@H](OC[C@H]2O[C@H](O[C@H]3O[C@H](CO[C@@H]4O[C@H](COS(=O)(=O)O)[C@@H](O[C@H]5O[C@H](COS(=O)(=O)O)[C@@H](OS(=O)(=O)O)[C@H](OS(=O)(=O)O)[C@H]5OS(=O)(=O)O)[C@H](OS(=O)(=O)O)[C@H]4OS(=O)(=O)O)[C@@H](OS(=O)(=O)O)[C@H](OS(=O)(=O)O)[C@H]3OS(=O)(=O)O)[C@H](OS(=O)(=O)O)[C@@H](OS(=O)(=O)O)[C@@H]2OS(=O)(=O)O)[C@H](OS(=O)(=O)O)[C@@H](OS(=O)(=O)O)[C@@H]1O[C@H]1O[C@H](COS(=O)(=O)O)[C@@H](OS(=O)(=O)O)[C@H](OS(=O)(=O)O)[C@H]1OS(=O)(=O)O [drawing 15, Glc 1α,4 glc 1β,6 glc 1α,1α' glc 1β,6 glc 1α,4 glc, eicosakis (H-sulfate), eicosasalt with trimethylamine] | 5 | N | N
O=S(=O)(O)OC[C@H]1O[C@@H](OC[C@H]2O[C@H](O[C@H]3O[C@H](CO[C@@H]4O[C@H](COS(=O)(=O)O)[C@@H](O[C@H]5O[C@H](COS(=O)(=O)O)[C@@H](OS(=O)(=O)O)[C@H](OS(=O)(=O)O)[C@H]5OS(=O)(=O)O)[C@H](OS(=O)(=O)O)[C@H]4OS(=O)(=O)O)[C@@H](OS(=O)(=O)O)[C@H](OS(=O)(=O)O)[C@H]3OS(=O)(=O)O)[C@H](OS(=O)(=O)O)[C@@H](OS(=O)(=O)O)[C@@H]2OS(=O)(=O)O)[C@H](OS(=O)(=O)O)[C@@H](OS(=O)(=O)O)[C@@H]1O[C@H]1O[C@H](COS(=O)(=O)O)[C@@H](OS(=O)(=O)O)[C@H](OS(=O)(=O)O)[C@H]1OS(=O)(=O)O [drawing 16, Glc 1α,4 glc 1β,6 glc 1α,1α' glc 1β,6 glc 1α,4 glc, eicosakis (H-sulfate), eicosasodium salt] | 10 | 6 Wells | N
O=S(=O)(O)OC[C@H]1O[C@@H](OC[C@H]2O[C@H](O[C@H]3O[C@H](CO[C@@H]4O[C@H](COS(=O)(=O)O)[C@@H](O[C@H]5O[C@H](COS(=O)(=O)O)[C@@H](O[C@H]6O[C@H](COS(=O)(=O)O)[C@@H](OS(=O)(=O)O)[C@H](OS(=O)(=O)O)[C@H]6OS(=O)(=O)O)[C@H](OS(=O)(=O)O)[C@H]5OS(=O)(=O)O)[C@H](OS(=O)(=O)O)[C@H]4OS(=O)(=O)O)[C@@H](OS(=O)(=O)O)[C@H](OS(=O)(=O)O)[C@H]3OS(=O)(=O)O)[C@H](OS(=O)(=O)O)[C@@H](OS(=O)(=O)O)[C@@H]2OS(=O)(=O)O)[C@H](OS(=O)(=O)O)[C@@H](OS(=O)(=O)O)[C@@H]1O[C@H]1O[C@H](COS(=O)(=O)O)[C@@H](O[C@H]2O[C@H](COS(=O)(=O)O)[C@@H](OS(=O)(=O)O)[C@H](OS(=O)(=O)O)[C@H]2OS(=O)(=O)O)[C@H](OS(=O)(=O)O)[C@H]1OS(=O)(=O)O [drawing 17, Glc 1α,4 glc 1α,4 glc 1β,6 glc 1α,1α' glc 1β,6 glc 1α,4 glc 1α,4 glc, hexacosakis (H-sulfate), hexacosasalt with trimethylamine] | 9 | 6 Wells | 1 Wells
O=S(=O)(O)OC[C@H]1O[C@@H](OC[C@H]2O[C@H](O[C@H]3O[C@H](CO[C@@H]4O[C@H](COS(=O)(=O)O)[C@@H](O[C@H]5O[C@H](COS(=O)(=O)O)[C@@H](O[C@H]6O[C@H](COS(=O)(=O)O)[C@@H](OS(=O)(=O)O)[C@H](OS(=O)(=O)O)[C@H]6OS(=O)(=O)O)[C@H](OS(=O)(=O)O)[C@H]5OS(=O)(=O)O)[C@H](OS(=O)(=O)O)[C@H]4OS(=O)(=O)O)[C@@H](OS(=O)(=O)O)[C@H](OS(=O)(=O)O)[C@H]3OS(=O)(=O)O)[C@H](OS(=O)(=O)O)[C@@H](OS(=O)(=O)O)[C@@H]2OS(=O)(=O)O)[C@H](OS(=O)(=O)O)[C@@H](OS(=O)(=O)O)[C@@H]1O[C@H]1O[C@H](COS(=O)(=O)O)[C@@H](O[C@H]2O[C@H](COS(=O)(=O)O)[C@@H](OS(=O)(=O)O)[C@H](OS(=O)(=O)O)[C@H]2OS(=O)(=O)O)[C@H](OS(=O)(=O)O)[C@H]1OS(=O)(=O)O [drawing 19, Glc 1α,4 glc 1α,4 glc 1β,6 glc 1α,1α' glc 1β,6 glc 1α,4 glc 1α,4 glc, hexacosakis (H-sulfate), hexacosasodium salt] | 9 | 6 Wells | 1 Wells
O=S(=O)(O)OC[C@H]1O[C@@H](OC[C@H]2O[C@H](O[C@H]3O[C@H](CO[C@@H]4O[C@H](COS(=O)(=O)O)[C@@H](O[C@H]5O[C@H](COS(=O)(=O)O)[C@@H](O[C@H]6O[C@H](COS(=O)(=O)O)[C@@H](O[C@H]7O[C@H](COS(=O)(=O)O)[C@@H](O[C@H]8O[C@H](COS(=O)(=O)O)[C@@H](O[C@H]9O[C@H](COS(=O)(=O)O)[C@@H](O[C@H]%10O[C@H](COS(=O)(=O)O)[C@@H](OS(=O)(=O)O)[C@H](OS(=O)(=O)O)[C@H]%10OS(=O)(=O)O)[C@H](OS(=O)(=O)O)[C@H]9OS(=O)(=O)O)[C@H](OS(=O)(=O)O)[C@H]8OS(=O)(=O)O)[C@H](OS(=O)(=O)O)[C@H]7OS(=O)(=O)O)[C@H](OS(=O)(=O)O)[C@H]6OS(=O)(=O)O)[C@H](OS(=O)(=O)O)[C@H]5OS(=O)(=O)O)[C@H](OS(=O)(=O)O)[C@H]4OS(=O)(=O)O)[C@@H](OS(=O)(=O)O)[C@H](OS(=O)(=O)O)[C@H]3OS(=O)(=O)O)[C@H](OS(=O)(=O)O)[C@@H](OS(=O)(=O)O)[C@@H]2OS(=O)(=O)O)[C@H](OS(=O)(=O)O)[C@@H](OS(=O)(=O)O)[C@@H]1O[C@H]1O[C@H](COS(=O)(=O)O)[C@@H](O[C@H]2O[C@H](COS(=O)(=O)O)[C@@H](O[C@H]3O[C@H](COS(=O)(=O)O)[C@@H](O[C@H]4O[C@H](COS(=O)(=O)O)[C@@H](O[C@H]5O[C@H](COS(=O)(=O)O)[C@@H](O[C@H]6O[C@H](COS(=O)(=O)O)[C@@H](OS(=O)(=O)O)[C@H](OS(=O)(=O)O)[C@H]6OS(=O)(=O)O)[C@H](OS(=O)(=O)O)[C@H]5OS(=O)(=O)O)[C@H](OS(=O)(=O)O)[C@H]4OS(=O)(=O)O)[C@H](OS(=O)(=O)O)[C@H]3OS(=O)(=O)O)[C@H](OS(=O)(=O)O)[C@H]2OS(=O)(=O)O)[C@H](OS(=O)(=O)O)[C@H]1OS(=O)(=O)O [drawing 21, Glc 1α,4 (glc 1α,4)5 glc 1β,6 glc 1α,1α'glc 1β,6 glc (glc 1α,4)5 1α,4 glc, pentacontakis (H-sulfate), pentacontasalt with trimethylamine] | 10 | 5 Wells | N
